The test has as its target T1, Aurora kinase A (AURKA) (Homo sapiens, UniProt O14965).
T1 construct: endogenous in cells; host or cells: HeLa LgBit (AURKA-HiBit KI), CRISPR/Cas9 knock-in at the endogenous AURKA locus
T1 sequence (O14965 1-403): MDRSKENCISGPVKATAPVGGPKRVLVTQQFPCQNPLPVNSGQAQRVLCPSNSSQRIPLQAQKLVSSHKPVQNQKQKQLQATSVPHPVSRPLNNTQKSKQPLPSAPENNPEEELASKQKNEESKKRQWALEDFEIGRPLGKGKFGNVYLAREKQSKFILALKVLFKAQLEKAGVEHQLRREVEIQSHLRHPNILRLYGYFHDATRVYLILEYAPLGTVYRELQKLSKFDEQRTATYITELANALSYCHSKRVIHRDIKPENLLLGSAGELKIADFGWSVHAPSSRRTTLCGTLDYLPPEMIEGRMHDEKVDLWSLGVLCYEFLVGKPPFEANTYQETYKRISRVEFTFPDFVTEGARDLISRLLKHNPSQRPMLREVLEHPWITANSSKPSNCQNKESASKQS
Nature of the test: Luciferase assay for AURKA in HeLa LgBit (AURKA-HiBit KI) cell line. The note with it: HeLa LgBit (AURKA-HiBit KI) cells, measured after 12 hours. The test is classed as cell-based. From the text: HeLa cell lines that stably express LgBit were constructed via LgBit vector transfection. Then, donor DNA and guide RNA for insertion of HiBit amino acid sequence at C-terminus of inherent Aurora kinase A (AURKA) genes were designed and constructed. Thereafter, they were transfected into the cell lines with CRISPR/Cas9 expression vector system. HiBit gene knock-in single cells were selected, passaged and used for the experiments.
For cell culture, DMEM (Gibco, Cat. No. 11995-065; Lot. No. 2562497), FBS (Gibco, Cat. No. 16000-044; Lot. No. 2511328P), Penicillin/Streptomycin (PS) (Gibco, Cat. No. 15140-122; Lot. No. 2585636), 90 mm^2 cell culture dish (SPL, Cat. No. 20100), 96-well white plate, PBS pH 7.4 (Gibco, […]), TrypLE™ Express (Gibco, Cat. No. 12605-010; Lot. No. 2522525), counting chamber (hematocytometer) (Hirschmann, Cat. No. 8100204; Lot. No. 8021087) and 0.4% Trypan Blue solution (DYNEBIO, Cat. No. CBT3710; Lot. No. 20231017) were used. Cells were cultured in DMEM supplemented with 10% FBS and 1% PS and incubated in CO2 incubator (Thermo, Cat. No. 4111) at 37° C., 5% CO2 condition.
HeLa LgBit (AURKA-HiBit KI) cell lines were cultured in 90 mm^2 cell culture dish, and 3×10^4 cells in […] of total medium volume were seeded and incubated for 18 hours in CO2 incubator. Then, Eudurazine (Promega, Cat. No. N247B; Lot. No. 495218) was added to each well to make up 1% of the total volume, followed by further incubation for 2 hours in CO2 incubator.
The present compounds were fully dissolved in DMSO (Sigma-Aldrich Cat. No. D2438, Lot. No. RNBL7287) and 10 nM or 100 nM of total concentration were used in the experiment. After adding the compounds in each well of 96-well white plate, the plate was placed in the plate reader (BMG Labtech, CLARIOstar Plus) for real-time analysis. The wavelength for analysis was set to […], and the luminescence value was measured after 12 hours. The luminescence value was analyzed through an Excel program.
In general terms: The HiBiT peptide binds its large partner to form an active luciferase.

Turning to `O=C1CCC(NC(=O)c2cccc(N3CCC(CN4CCN(C(=O)Cc5ccc(Nc6ncc(F)c(Nc7ccc(C(=O)Nc8ccccc8Cl)cc7)n6)cc5)CC4)CC3)c2)C(=O)N1` (centres unmarked) [Compound 47, 3-(4-((4-(2-(4-((4-((4-((2-chlorophenyl)carbamoyl)phenyl)amino)-5-fluoropyrimidin-2-yl)amino)phenyl)acetyl)piperazin-1-yl)methyl)piperidin-1-yl)-N-(2,6-dioxopiperidin-3-yl)benzamide], the “luminescence value (Level)” value is on record as “D (D is 0.7 to 0.8)” (10 nM compound) and “B (B is 0.2 to 0.4)” (100 nM compound).

As to `O=C1CCC(c2cccc(N3CCC(CN4CCN(C(=O)Cc5ccc(Nc6ncc(F)c(Nc7ccc(C(=O)Nc8ccccc8Cl)cc7)n6)cc5)CC4)CC3)c2)C(=O)N1` (centres unmarked) [Compound 2, N-(2-chlorophenyl)-4-((2-((4-(2-(4-((1-(3-(2,6-dioxopiperidin-3-yl)phenyl)piperidin-4-yl)methyl)piperazin-1-yl)-2-oxoethyl)phenyl)amino)-5-fluoropyrimidin-4-yl)amino)benzamide], the “luminescence value (Level)” value is, setting by setting: (10 nM compound) “C (C is 0.5 to 0.7)”; (100 nM compound) “B (B is 0.2 to 0.4)”.

Regarding `COc1cc(C(=O)NN2CCC(CCN3CCN(c4ccc(C5CCC(=O)NC5=O)cc4)CC3)CC2)ccc1Nc1ncc(F)c(Nc2ccc(C(=O)Nc3ccccc3Cl)cc2)n1` (centres unmarked) [Compound 84, 4-((4-((4-((2-chlorophenyl)carbamoyl)phenyl)amino)-5-fluoropyrimidin-2-yl)amino)-N-(4-(2-(4-(4-(2,6-dioxopiperidin-3-yl)phenyl)piperazin-1-yl)ethyl)piperidin-1-yl)-3-methoxybenzamide], the “luminescence value (Level)” value is, setting by setting: (10 nM compound) “C (C is 0.5 to 0.7)”; (100 nM compound) “B (B is 0.2 to 0.4)”.

As for `CN(C(=O)c1ccc(Nc2nc(Nc3ccc(C(=O)NN4CCC(CCN5CCN(c6ccc(C7CCC(=O)NC7=O)cc6)CC5)CC4)cc3)ncc2F)cc1)c1ccccc1Cl` (centres unmarked) [Compound 102, 4-[[4-[4-[(2-chlorophenyl)-methyl-carbamoyl]anilino]-5-fluoro-pyrimidin-2-yl]amino]-N-[4-[2-[4-[4-(2,6-dioxo-3-piperidyl)phenyl]piperazin-1-yl]ethyl]-1-piperidyl]benzamide], the “luminescence value (Level)” value is, setting by setting: (10 nM compound) “B (B is 0.3 to 0.5)”; (100 nM compound) “A (A is <0.2)”.

As to `O=C1CCC(c2ccc(N3CCC(CN4CCC(CNC(=O)c5ccc(Nc6ncc(F)c(Nc7ccc(C(=O)Nc8ccccc8Cl)cc7)n6)cc5)CC4)CC3)cc2)C(=O)N1` (centres unmarked) [Compound 62, N-(2-chlorophenyl)-4-((2-((4-(((1-((1-(4-(2,6-dioxopiperidin-3-yl)phenyl)piperidin-4-yl)methyl)piperidin-4-yl)methyl)carbamoyl)phenyl)amino)-5-fluoropyrimidin-4-yl)amino)benzamide], the “luminescence value (Level)” value by setting is: (10 nM compound) “B (B is 0.3 to 0.5)”; (100 nM compound) “A (A is <0.2)”.

For the molecule `O=C1CCC(c2ccc(C#CC3CCN(C4CCN(C(=O)c5ccc(Nc6ncc(F)c(Nc7ccc(C(=O)Nc8ccccc8Cl)cc7)n6)cc5)CC4)CC3)cn2)C(=O)N1` (centres unmarked) [Compound 20, N-(2-chlorophenyl)-4-((2-((4-(4-((6-(2,6-dioxopiperidin-3-yl)pyridin-3-yl)ethynyl)-[1,4′-bipiperidine]-1′-carbonyl)phenyl)amino)-5-fluoropyrimidin-4-yl)amino)benzamide], the “luminescence value (Level)” value runs as follows: (10 nM compound) “D (D is 0.7 to 0.8)”; (100 nM compound) “C (C is 0.4 to 0.6)”.

For the molecule `O=C1CCC(Nc2ccc(N3CCC(CN4CC5(C4)CN(C(=O)c4ccc(Nc6ncc(F)c(Nc7ccc(C(=O)Nc8ccccc8Cl)cc7)n6)cc4)C5)CC3)cc2)C(=O)N1` (centres unmarked) [Compound 31, N-(2-chlorophenyl)-4-((2-((4-(6-((1-(4-((2,6-dioxopiperidin-3-yl)amino)phenyl)piperidin-4-yl)methyl)-2,6-diazaspiro[3.3]heptane-2-carbonyl)phenyl)amino)-5-fluoropyrimidin-4-yl)amino)benzamide], the “luminescence value (Level)” value (10 nM compound) is on record as “C (C is 0.5 to 0.7)” and the “luminescence value (Level)” value (100 nM compound) is recorded as “B (B is 0.2 to 0.4)”.

For `O=C1CCC(c2ccc(C#CC3CCN(C4CCN(C(=O)c5ccc(Nc6ncc(F)c(Nc7ccc(C(=O)Nc8ccccc8Cl)cc7)n6)cc5)CC4)CC3)cc2)C(=O)N1` (centres unmarked) [Compound 14, N-(2-chlorophenyl)-4-((2-((4-(4-((4-(2,6-dioxopiperidin-3-yl)phenyl)ethynyl)-[1,4′-bipiperidine]-1′-carbonyl)phenyl)amino)-5-fluoropyrimidin-4-yl)amino)benzamide], the “luminescence value (Level)” value runs as follows: (10 nM compound) “D (D is 0.7 to 0.8)”; (100 nM compound) “C (C is 0.4 to 0.6)”.

Take `CN(CC1CCN(c2ccc(C3CCC(=O)NC3=O)cc2)CC1)C1CC(NC(=O)c2ccc(Nc3ncc(F)c(Nc4ccc(C(=O)Nc5ccccc5Cl)cc4)n3)cc2)C1` (centres unmarked) [Compound 11, N-(2-chlorophenyl)-4-((2-((4-((3-(((1-(4-(2,6-dioxopiperidin-3-yl)phenyl)piperidin-4-yl)methyl)(methyl)amino)cyclobutyl)carbamoyl)phenyl)amino)-5-fluoropyrimidin-4-yl)amino)benzamide]: the “luminescence value (Level)” value is listed as “D (D is 0.7 to 0.8)” (10 nM compound) and “B (B is 0.2 to 0.4)” (100 nM compound).

For `O=C1CCC(Nc2ccc(N3CC4CN(CC5CN(C(=O)c6ccc(Nc7ncc(F)c(Nc8ccc(C(=O)Nc9ccccc9Cl)cc8)n7)cc6)C5)CC4C3)cc2)C(=O)N1` (centres unmarked) [Compound 34, N-(2-chlorophenyl)-4-((2-((4-(3-((5-(4-((2,6-dioxopiperidin-3-yl)amino)phenyl)hexahydropyrrolo[3,4-c]pyrrol-2(1H)-yl)methyl)azetidine-1-carbonyl)phenyl)amino)-5-fluoropyrimidin-4-yl)amino)benzamide], the “luminescence value (Level)” value runs as follows: (10 nM compound) “B (B is 0.3 to 0.5)”; (100 nM compound) “A (A is <0.2)”.

For the molecule `O=C1CCC(Nc2ccc(N3CCN(C[C@@H]4[C@H]5CN(C(=O)c6ccc(Nc7ncc(F)c(Nc8ccc(C(=O)Nc9ccccc9Cl)cc8)n7)cc6)C[C@@H]45)CC3)cc2)C(=O)N1` (stereo partly drawn) [Compound 37, N-(2-chlorophenyl)-4-((2-((4-((1R,5S,6s)-6-((4-(4-((2,6-dioxopiperidin-3-yl)amino)phenyl)piperazin-1-yl)methyl)-3-azabicyclo[3.1.0]hexane-3-carbonyl)phenyl)amino)-5-fluoropyrimidin-4-yl)amino)benzamide], the “luminescence value (Level)” value is, setting by setting: (10 nM compound) “B (B is 0.3 to 0.5)”; (100 nM compound) “B (B is 0.2 to 0.4)”.

On to `O=C1CCC(Nc2cccc(N3CCC(CN4CCN(C(=O)Cc5ccc(Nc6ncc(F)c(Nc7ccc(C(=O)Nc8ccccc8Cl)cc7)n6)cc5)CC4)CC3)c2)C(=O)N1` (centres unmarked) [Compound 25, N-(2-chlorophenyl)-4-((2-((4-(2-(4-((1-(3-((2,6-dioxopiperidin-3-yl)amino)phenyl)piperidin-4-yl)methyl)piperazin-1-yl)-2-oxoethyl)phenyl)amino)-5-fluoropyrimidin-4-yl)amino)benzamide], for which the “luminescence value (Level)” value reads like this: (10 nM compound) “C (C is 0.5 to 0.7)”; (100 nM compound) “B (B is 0.2 to 0.4)”.

As for `O=C1CCC(c2ccc(N3CCN(CCC4CCN(NC(=O)c5ccc(Nc6ncc(F)c(Nc7ccc(C(=O)NC8CCCCC8)cc7)n6)cc5)CC4)CC3)cc2)C(=O)N1` (centres unmarked) [Compound 92, N-cyclohexyl-4-((2-((4-((4-(2-(4-(4-(2,6-dioxopiperidin-3-yl)phenyl)piperazin-1-yl)ethyl)piperidin-1-yl)carbamoyl)phenyl)amino)-5-fluoropyrimidin-4-yl)amino)benzamide], the “luminescence value (Level)” value (10 nM compound) is on record as “B (B is 0.3 to 0.5)” and the “luminescence value (Level)” value (100 nM compound) is given as “A (A is <0.2)”.

For the origin of these results see patent US20260226071A1, “2, 4-DIANILINOPYRIMIDINE-BASED AURORA-A KINASE SELECTIVE DEGRADATION INDUCING COMPOUNDS” (UPPTHERA, INC., priority 2023, published 2026).
